Results as given in patent US20240279241A1, “PYRIDO[4,3-D]PYRIMIDINE COMPOUNDS CAPABLE OF INHIBITING KRAS MUTANT PROTEINS” (Redx Pharma PLC, priority 2021, published 2024).
Like-named read-outs stand apart in the source and are kept apart here.

Tests used:
Type in all cases: biochemical
KRAS G12D = target: T1, KRAS G12D (Homo sapiens, UniProt P01116, G12D); assay: HTRF nucleotide exchange assay (NEA), KRAS G12D; conditions: recombinant human KRAS G12D aa1-188, 2 nM; lowest class = % inhibition at 10 μM
T1 construct: Recombinant human RAS protein (2 nM)
T1 sequence (P01116 1-188 isoform P01116-2 G12D): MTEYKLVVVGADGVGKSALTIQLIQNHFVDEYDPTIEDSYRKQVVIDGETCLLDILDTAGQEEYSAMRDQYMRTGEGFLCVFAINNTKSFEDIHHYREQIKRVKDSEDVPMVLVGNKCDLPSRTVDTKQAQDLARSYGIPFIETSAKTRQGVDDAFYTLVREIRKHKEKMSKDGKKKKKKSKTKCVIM
Method: (§1) The capacity of compounds to bind KRAS G12D, other KRAS mutants and wildtype RAS isoforms was quantified using a HTRF nucleotide exchange assay. Recombinant human RAS protein (2 nM; aa1-188 KRAS WT, HRAS WT, NRAS WT, or KRAS containing the containing the G12D, G13D or Q61H amino acid substitutions, or 4 nM KRAS; aa1-188 containing the G12V, G12C, G12A or G12S amino acid substitution, an N-terminal 6×His-tag and leader sequence), and 2 nM Europium-labeled anti-6×His antibody were mixed in assay buffer (10 mM HEPES pH7.3, 150 mM NaCl, 5 mM MgCl2, 0.05% BSA, 0.0025% NP-40 and 100 mM KF) with various concentrations of compound in a 384-well plate and a volume of 5 uL. After a 60-minute incubation at room temperature, 5 ul of 200 nM EDA-GTP-DY647P1 (diluted in assay buffer) was added to the plate. Following 30-minute incubation at room temperature, time-resolved fluorescence was measured on a PerkinElmer Envision plate reader. DMSO (0.3%) and unlabeled […] (1 μM) or equivalent tool compound were used to generate the Max and Min assay signals, respectively. Data was analysed using a four-parameter logistic model to calculate IC50 values, with at least two independent replicates were performed for each compound.

KRAS WT = target: T2, KRAS WT (Homo sapiens, UniProt P01116); assay: HTRF nucleotide exchange assay (NEA), KRAS WT
T2 construct: Recombinant human RAS protein (2 nM); aa1-188 KRAS WT
T2 sequence (P01116 1-188 isoform P01116-2): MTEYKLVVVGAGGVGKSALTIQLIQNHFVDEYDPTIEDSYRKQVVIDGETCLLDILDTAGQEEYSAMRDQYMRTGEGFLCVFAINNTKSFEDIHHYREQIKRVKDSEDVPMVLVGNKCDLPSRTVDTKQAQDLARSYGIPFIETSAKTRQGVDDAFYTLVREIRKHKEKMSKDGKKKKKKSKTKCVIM
Method: as §1

KRAS G12C = target: T3, KRAS G12C (Homo sapiens, UniProt P01116, G12C); assay: HTRF nucleotide exchange assay (NEA), KRAS G12C
T3 construct: 4 nM KRAS; aa1-188 containing the G12V, G12C, G12A or G12S amino acid substitution
T3 sequence (P01116 1-188 isoform P01116-2 G12C): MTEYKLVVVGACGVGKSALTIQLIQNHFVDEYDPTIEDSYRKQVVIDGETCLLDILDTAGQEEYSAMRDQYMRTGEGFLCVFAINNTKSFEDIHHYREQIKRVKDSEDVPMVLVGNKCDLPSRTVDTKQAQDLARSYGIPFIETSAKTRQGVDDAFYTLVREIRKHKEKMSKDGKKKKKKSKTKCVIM
Method: as §1

KRAS G12V = target: T4, KRAS G12V (Homo sapiens, UniProt P01116, G12V); assay: HTRF nucleotide exchange assay (NEA), KRAS G12V
T4 construct: 4 nM KRAS; aa1-188 containing the G12V, G12C, G12A or G12S amino acid substitution
T4 sequence (P01116 1-188 isoform P01116-2 G12V): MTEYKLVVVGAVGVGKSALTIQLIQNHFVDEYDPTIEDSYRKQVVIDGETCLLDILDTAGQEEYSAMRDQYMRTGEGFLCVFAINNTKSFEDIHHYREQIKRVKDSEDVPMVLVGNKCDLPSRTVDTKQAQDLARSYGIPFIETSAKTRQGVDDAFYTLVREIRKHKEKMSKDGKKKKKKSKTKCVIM
Method: as §1

KRAS G12S = target: T5, KRAS G12S (Homo sapiens, UniProt P01116, G12S); assay: HTRF nucleotide exchange assay (NEA), KRAS G12S
T5 construct: 4 nM KRAS; aa1-188 containing the G12V, G12C, G12A or G12S amino acid substitution
T5 sequence (P01116 1-188 isoform P01116-2 G12S): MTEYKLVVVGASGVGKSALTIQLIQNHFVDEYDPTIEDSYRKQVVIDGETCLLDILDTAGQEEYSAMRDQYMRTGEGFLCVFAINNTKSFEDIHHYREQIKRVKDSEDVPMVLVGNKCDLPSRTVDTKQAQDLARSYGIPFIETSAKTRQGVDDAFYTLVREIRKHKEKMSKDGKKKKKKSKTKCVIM
Method: as §1

KRAS G12A = target: T6, KRAS G12A (Homo sapiens, UniProt P01116, G12A); assay: HTRF nucleotide exchange assay (NEA), KRAS G12A
T6 construct: 4 nM KRAS; aa1-188 containing the G12V, G12C, G12A or G12S amino acid substitution
T6 sequence (P01116 1-188 isoform P01116-2 G12A): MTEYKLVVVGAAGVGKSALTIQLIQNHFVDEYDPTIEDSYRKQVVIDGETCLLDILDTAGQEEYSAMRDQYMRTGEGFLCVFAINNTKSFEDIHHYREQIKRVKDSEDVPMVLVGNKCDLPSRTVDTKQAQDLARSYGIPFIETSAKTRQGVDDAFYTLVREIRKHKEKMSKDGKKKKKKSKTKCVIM
Method: as §1

Row | Structure (SMILES) | IC50 (KRAS G12D) [nM] | IC50 (KRAS WT) [nM] | IC50 (KRAS G12C) [nM] | IC50 (KRAS G12V) [nM] | IC50 (KRAS G12S) [nM] | IC50 (KRAS G12A) [nM] | IC50 (KRAS G12C; recombinant human KRAS G12C aa1-188, 4 nM, lowest class = % inhibition at 10 μM) [nM] | IC50 (KRAS G12V; recombinant human KRAS G12V aa1-188, 4 nM, lowest class = % inhibition at 10 μM) [nM]
1 | OCC1CCN(c2nc(OCC34CCCN3CCC4)nc3c(F)c(-c4cc(O)cc5ccccc45)ncc23)C1 (centres unmarked) [Example 73, 4-[8-fluoro-2-(1,2,3,5,6,7-hexahydropyrrolizin-8-ylmethoxy)-4-[3-(hydroxymethyl)pyrrolidin-1-yl]pyrido[4,3-d]pyrimidin-7-yl]naphthalen-2-ol] | 100 to 10000 | 100 to 10000 | 100 to 10000 | 100 to 10000 | – | – | – | –
2 | CC(C)(O)C1CCN(c2nc(OCC34CCCN3CCC4)nc3c(F)c(-c4cc(O)cc5ccccc45)ncc23)C1 (centres unmarked) [Example 74, 4-[8-fluoro-2-(1,2,3,5,6,7-hexahydropyrrolizin-8-ylmethoxy)-4-[3-(1-hydroxy-1-methyl-ethyl)pyrrolidin-1-yl]pyrido[4,3-d]pyrimidin-7-yl]naphthalen-2-ol] | > 10000 | 100 to 10000 | – | – | – | – | > 10000 | > 10000
3 | CN1CCCN(c2nc(OCC34CCCN3CCC4)nc3c(F)c(-c4cc(O)cc5ccccc45)ncc23)CC1=O [Example 75, 4-[8-fluoro-2-(1,2,3,5,6,7-hexahydropyrrolizin-8-ylmethoxy)-7-(3-hydroxy-1-naphthyl)pyrido[4,3-d]pyrimidin-4-yl]-1-methyl-1,4-diazepan-2-one] | 100 to 10000 | 100 to 10000 | 100 to 10000 | 100 to 10000 | – | – | – | –
4 | O=C1CC2(CCN(c3nc(OCC45CCCN4CCC5)nc4c(F)c(-c5cc(O)cc6ccccc56)ncc34)C2)CN1 (centres unmarked) [Example 76, 2-[8-fluoro-2-(1,2,3,5,6,7-hexahydropyrrolizin-8-ylmethoxy)-7-(3-hydroxy-1-naphthyl)pyrido[4,3-d]pyrimidin-4-yl]-2,7-diazaspiro[4.4] nonan-8-one] | > 10000 | 100 to 10000 | 100 to 10000 | 100 to 10000 | – | – | – | –
5 | O=C1NCCC12CCN(c1nc(OCC34CCCN3CCC4)nc3c(F)c(-c4cc(O)cc5ccccc45)ncc13)CC2 [Example 77, 8-[8-fluoro-2-(1,2,3,5,6,7-hexahydropyrrolizin-8-ylmethoxy)-7-(3-hydroxy-1-naphthyl)pyrido[4,3-d]pyrimidin-4-yl]-2,8-diazaspiro[4.5]decan-1-one] | 100 to 10000 | 100 to 10000 | 100 to 10000 | 100 to 10000 | – | – | – | –
6 | CN1CCN(c2nc(OCC34CCCN3CCC4)nc3c(F)c(-c4cc(O)cc5ccccc45)ncc23)CCC1=O [Example 78, 1-[8-fluoro-2-(1,2,3,5,6,7-hexahydropyrrolizin-8-ylmethoxy)-7-(3-hydroxy-1-naphthyl)pyrido[4,3-d]pyrimidin-4-yl]-4-methyl-1,4-diazepan-5-one] | 100 to 10000 | 100 to 10000 | 100 to 10000 | 100 to 10000 | – | – | – | –
7 | O=C1CC2(CCN(c3nc(OCC45CCCN4CCC5)nc4c(F)c(-c5cc(O)cc6ccccc56)ncc34)CC2)CN1 [Example 81, 8-[8-fluoro-2-(1,2,3,5,6,7-hexahydropyrrolizin-8-ylmethoxy)-7-(3-hydroxy-1-naphthyl)pyrido[4,3-d]pyrimidin-4-yl]-2,8-diazaspiro[4.5]decan-3-one] | 100 to 10000 | 100 to 10000 | 100 to 10000 | 10 to 100 | – | – | – | –
8 | O=C1NCc2ccc(Nc3nc(OCC45CCCN4CCC5)nc4c(F)c(-c5cc(O)cc6ccccc56)ncc34)cc21 [Example 82, 6-[[8-fluoro-2-(1,2,3,5,6,7-hexahydropyrrolizin-8-ylmethoxy)-7-(3-hydroxy-1-naphthyl)pyrido[4,3-d]pyrimidin-4-yl]amino]isoindolin-1-one] | 100 to 10000 | 100 to 10000 | 100 to 10000 | 10 to 100 | – | – | – | –
9 | Nc1cc2ccccc2c(-c2ncc3c(N4CCCOCC4)nc(OCC45CCCN4CCC5)nc3c2F)n1 [Example 91, 1-[8-fluoro-2-(1,2,3,5,6,7-hexahydropyrrolizin-8-ylmethoxy)-4-(1,4-oxazepan-4-yl)pyrido[4,3-d]pyrimidin-7-yl]isoquinolin-3-amine] | 100 to 10000 | 100 to 10000 | 100 to 10000 | 100 to 10000 | – | – | – | –

Continued, values first:

Row | IC50 (KRAS G12D) [nM] | IC50 (KRAS WT) [nM] | IC50 (KRAS G12C) [nM] | IC50 (KRAS G12V) [nM] | IC50 (KRAS G12S) [nM] | IC50 (KRAS G12A) [nM] | IC50 (KRAS G12C; recombinant human KRAS G12C aa1-188, 4 nM, lowest class = % inhibition at 10 μM) [nM] | IC50 (KRAS G12V; recombinant human KRAS G12V aa1-188, 4 nM, lowest class = % inhibition at 10 μM) [nM] | Structure (SMILES)
10 | ≤ 10 | ≤ 10 | ≤ 10 | ≤ 10 | ≤ 10 | ≤ 10 | – | – | C#Cc1c(F)ccc2cc(O)cc(-c3ncc4c(N5CCCNC(=O)C5)nc(OC[C@@]56CCCN5C[C@H](F)C6)nc4c3F)c12 (relative stereo) [Example 88, 4-[7-(8-ethynyl-7-fluoro-3-hydroxy-1-naphthyl)-8-fluoro-2-[[trans-2-fluoro-1,2,3,5,6,7-hexahydropyrrolizin-8-yl]methoxy]pyrido [4,3-d]pyrimidin-4-yl]-1,4-diazepan-2-one]
11 | 10 to 100 | 10 to 100 | 10 to 100 | 10 to 100 | 100 to 10000 | 10 to 100 | – | – | CC1CN(c2nc(OCC34CCCN3CCC4)nc3c(F)c(-c4cc(O)cc5ccccc45)ncc23)CCCO1 (centres unmarked) [Example 16, 4-[8-fluoro-2-(1,2,3,5,6,7-hexahydropyrrolizin-8-ylmethoxy)-4-(2-methyl-1,4-oxazepan-4-yl)pyrido[4,3-d]pyrimidin-7-yl]naphthalen-2-ol]
12 | 10 to 100 | 10 to 100 | 10 to 100 | 10 to 100 | 10 to 100 | 10 to 100 | – | – | Oc1cc(-c2ncc3c(N4CCCCCC4)nc(OCC45CCCN4CCC5)nc3c2F)c2ccccc2c1 [Example 17, 4-[4-(azepan-1-yl)-8-fluoro-2-(1,2,3,5,6,7-hexahydropyrrolizin-8-ylmethoxy)pyrido[4,3-d]pyrimidin-7-yl]naphthalen-2-ol]
13 | 10 to 100 | 10 to 100 | 10 to 100 | 10 to 100 | 100 to 10000 | 10 to 100 | – | – | Oc1cc(-c2ncc3c(N4CCC(O)CC4)nc(OCC45CCCN4CCC5)nc3c2F)c2ccccc2c1 [Example 41, 1-[8-fluoro-2-(1,2,3,5,6,7-hexahydropyrrolizin-8-ylmethoxy)-7-(3-hydroxy-1-naphthyl)pyrido[4,3-d]pyrimidin-4-yl]piperidin-4-ol]
14 | 100 to 10000 | 100 to 10000 | 100 to 10000 | 100 to 10000 | 100 to 10000 | – | – | – | COCC1(CNc2nc(OCC34CCCN3CCC4)nc3c(F)c(-c4cc(O)cc5ccccc45)ncc23)COC1 [Example 45, 4-[8-fluoro-2-(1,2,3,5,6,7-hexahydropyrrolizin-8-ylmethoxy)-4-[[3-(methoxymethyl)oxetan-3-yl]methylamino]pyrido [4,3-d]pyrimidin-7-yl]naphthalen-2-ol]
15 | 100 to 10000 | 100 to 10000 | – | – | 100 to 10000 | – | – | – | CS(=O)(=O)CCCNc1nc(OCC23CCCN2CCC3)nc2c(F)c(-c3cc(O)cc4ccccc34)ncc12 [Example 46, 4-[8-fluoro-2-(1,2,3,5,6,7-hexahydropyrrolizin-8-ylmethoxy)-4-(3-methylsulfonylpropylamino)pyrido[4,3-d]pyrimidin-7-yl]naphthalen-2-ol]
16 | 100 to 10000 | 10 to 100 | 10 to 100 | 10 to 100 | 100 to 10000 | 10 to 100 | – | – | Oc1cc(-c2ncc3c(N4CC5CCC(C5)C4)nc(OCC45CCCN4CCC5)nc3c2F)c2ccccc2c1 [Example 47, 4-[4-(3-azabicyclo[3.2.1]octan-3-yl)-8-fluoro-2-(1,2,3,5,6,7-hexahydropyrrolizin-8-ylmethoxy)pyrido [4,3-d]pyrimidin-7-yl]naphthalen-2-ol]
17 | 100 to 10000 | 100 to 10000 | 100 to 10000 | 100 to 10000 | – | – | – | – | O=C1CCN(c2nc(OCC34CCCN3CCC4)nc3c(F)c(-c4cc(O)cc5ccccc45)ncc23)CCO1 [Example 72, 4-[8-fluoro-2-(1,2,3,5,6,7-hexahydropyrrolizin-8-ylmethoxy)-7-(3-hydroxy-1-naphthyl)pyrido[4,3-d]pyrimidin-4-yl]-1,4-oxazepan-7-one]
18 | 10 to 100 | 10 to 100 | 10 to 100 | 10 to 100 | – | – | – | – | OCC1CCN(c2nc(OCC34CCCN3CCC4)nc3c(F)c(-c4cc(O)cc5ccccc45)ncc23)CC1 [Example 79, 4-[8-fluoro-2-(1,2,3,5,6,7-hexahydropyrrolizin-8-ylmethoxy)-4-[4-(hydroxymethyl)-1-piperidyl]pyrido[4,3-d]pyrimidin-7-yl]naphthalen-2-ol]
19 | 10 to 100 | 10 to 100 | 10 to 100 | 10 to 100 | – | – | – | – | CN(C)CC1(COc2nc(N3CCCOCC3)c3cnc(-c4cc(O)cc5ccccc45)c(F)c3n2)CC1 [Example 96, 4-[2-[[1-[(dimethylamino)methyl]cyclopropyl]methoxy]-8-fluoro-4-(1,4-oxazepan-4-yl)pyrido[4,3-d]pyrimidin-7-yl]naphthalen-2-ol]
